Experimental data reported in article PMC4544630, “Contribution of C-glucosidic ellagitannins to Lythrum salicaria L. influence on pro-inflammatory functions of human neutrophils” (Journal of Natural Medicines, 2014).

Tests used:
[1] = system: MMP-9; assay: MMP-9 production by LPS-stimulated neutrophils (ELISA); format: cell-based, human; conditions: LPS 100 ng/mL, 24 h, % of stimulated control
Text: (§1) Peripheral venous blood was taken from healthy human donors (20–35 years old) in the Warsaw Blood Donation Centre. […] The study conformed to the principles of the Declaration of Helsinki. Neutrophils were isolated using a standard method of dextran sedimentation prior to hypotonic lysis of erythrocytes and to centrifugation in a Ficoll Hypaque gradient. The purity of neutrophil preparations was >97 %, and viability measured by trypan blue exclusion was >98 %. Neutrophils were then resuspended in appropriate medium to perform the selected assay.
(§2) Neutrophils (2 × 10^5/mL) were cultured in 24-well plates in RPMI 1640 medium with 10 % FBS, 10 mM HEPES, and 2 mM L-glutamine in the absence or presence of LPS (100 ng/mL) for 24 h at 37 °C with 5 % CO2 in the absence or presence of extract at concentrations of 1, 5 and 20 μg/mL, and compounds at concentrations of 1, 5 and 20 μM were added to 1 mL of cell suspension 1 h before the stimuli. After 24 h, the neutrophils were harvested and centrifuged (2000 RPM; 10 min; 4 °C). The amount of IL-8 or MMP-9 released into cell supernatants was measured by enzyme-linked immunosorbent assay (ELISA) following the manufacturer’s instructions (R&D Systems, Minneapolis, MN, USA). PBS was used as a non-stimulated control. Curcumin was used as a positive control, according to Aggarwal and Harikumar and Antoine et al..

[2] = system: IL-8; assay: IL-8 production by LPS-stimulated neutrophils (ELISA); format: cell-based, human; conditions: LPS 100 ng/mL, 24 h, % of stimulated control
Text: as §1, §2

[3] = system: elastase; assay: Elastase release from cytochalasin A/f-MLP-stimulated neutrophils (SAAVNA substrate); format: cell-based, human; conditions: % of stimulated control
Text: as §1
Neutrophil elastase release was determined using SAAVNA as a substrate, and […] was measured spectrophotometrically. 100 μL of cell suspension (5 × 10^5/mL) in HBSS was preincubated with 50 μL of compound or extract solution (final concentrations of 1, 5 and 20 μM or μg/mL) for 15 min at 37 °C and then stimulated with 50 μL of cytochalasin A (5 μg/mL) and f-MLP (0.1 μg/mL) for 15 min. The neutrophils were centrifuged (2000 rpm; 10 min; 4 °C). After the addition of 50 μL of SAAVNA solution (1.6 mg/mL) to 100 μL of supernatant, the extent of […] was measured spectrophotometrically for 1 h at intervals of 20 min, at 412 nm using a microplate reader (BioTek). According to Kanashiro et al., quercetin was used as a positive control.

[4] = system: ROS; assay: ROS release from PMA-stimulated neutrophils, lucigenin chemiluminescence; format: cell-based, human; conditions: PMA + lucygenin, % of stimulated control
Text: as §1
(§3) Generation of oxidants by f-MLP or PMA-stimulated neutrophils was measured using luminol- or lucigenin-dependent chemiluminescence tests. 70 μL of cell suspension (2 × 10^5/mL) in HBSS was incubated with 50 μL of compound or extract solution (final concentrations of 1, 5 and 20 μM or μg/mL) together with 50 μL of luminol (100 μM) or lucigenin (200 μM) solution. ROS production was initiated by the addition of 30 μL of f-MLP (0.1 μg/mL) or PMA (1 μg/mL). Changes in chemiluminescence at 37 °C were measured immediately for 45 min at intervals of 2 min in a microplate reader (Biotek). Ascorbic acid was used as a positive control.

[5] = molecular target: T1, bovine testis hyaluronidase (Bos taurus, UniProt Q2YDK3); assay: Hyaluronidase activity, USP turbidimetric method modified; format: biochemical; conditions: for Hyaluronidase activity Mean(%): % of 100% active enzyme control
T1 construct: purchased Sigma–Aldrich GmbH (Steinheim, Germany); host or cells: bovine testis
T1 sequence (Q2YDK3 36-553): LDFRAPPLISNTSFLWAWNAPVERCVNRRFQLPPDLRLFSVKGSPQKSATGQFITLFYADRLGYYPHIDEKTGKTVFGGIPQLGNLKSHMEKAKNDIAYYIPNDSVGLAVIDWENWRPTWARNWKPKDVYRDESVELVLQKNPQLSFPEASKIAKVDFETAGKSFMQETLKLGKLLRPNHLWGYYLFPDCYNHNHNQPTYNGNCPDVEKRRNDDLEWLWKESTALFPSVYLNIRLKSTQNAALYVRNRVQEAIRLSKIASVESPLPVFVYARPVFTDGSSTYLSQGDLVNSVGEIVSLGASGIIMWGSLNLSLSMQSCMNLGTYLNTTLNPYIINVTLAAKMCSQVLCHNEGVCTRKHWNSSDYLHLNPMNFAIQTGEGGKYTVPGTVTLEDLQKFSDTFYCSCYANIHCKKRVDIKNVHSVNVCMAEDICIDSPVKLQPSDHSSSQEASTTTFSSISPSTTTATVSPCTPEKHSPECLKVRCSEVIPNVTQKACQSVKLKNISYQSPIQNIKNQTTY
Text: The […] flowering herb was collected from its natural habitat in Umer in the Świętokrzyskie region (Poland) in July 2011. Its identity was confirmed anatomically and morphologically based on its pharmacopoeial monograph in the Department of Pharmacognosy and Molecular Basis of Phytotherapy, Medical University of Warsaw, where the voucher specimen UMER2011 is deposited. […] […]), castalagin ([…] (SB) and […]. 1, 2) from […] performed according to Piwowarski and Kiss. […] Isolated ellagitannins were of >95 % purity (determined by the HPLC-DAD-CAD method). […] Gallic acid (>96 % purity) was purchased from ChromaDex (Santa Ana, USA). Propidium iodide was purchased from BD Biosciences (San Diego, CA, USA). All substances used were of >95 % purity. Phosphate-buffered saline (PBS) was purchased from Gibco (Carlsbad, CA, USA). The influence of extract and ellagitannins on hyaluronidase activity was measured using the USP turbidimetric method modified by Piwowarski et al. […] Heparin was used as a positive control.

[6] = system: ROS; assay: ROS release from f-MLP-stimulated neutrophils, luminol chemiluminescence; format: cell-based, human; conditions: % of stimulated control
Text: as §1, §3

[7] = system: MPO; assay: MPO release from cytochalasin A/f-MLP-stimulated neutrophils (TMB substrate); format: cell-based, human; conditions: cytochalasin A/f-MLP, % of stimulated control
Text: Peripheral venous blood was taken from healthy human donors (20-35 years old) in the Warsaw Blood Donation Centre. […] The study conformed to the principles of the Declaration of Helsinki. Neutrophils were isolated using a standard method of dextran sedimentation prior to hypotonic lysis of erythrocytes and to centrifugation in a Ficoll Hypaque gradient. The purity of neutrophil preparations was >97 %, and viability measured by trypan blue exclusion was >98 %. Neutrophils were then resuspended in appropriate medium to perform the selected assay. Neutrophil MPO release was determined using TMB as a substrate. […] After centrifugation (2000 rpm; 10 min; 4 °C), 100 μL of supernatant was incubated with 50 μL of the TMB liquid substrate system. The reaction was terminated after 20 min by the addition of 2 M hydrochloric acid. The absorbance was measured at […] using a microplate reader (BioTek). Gallic acid was used as a positive control, according to Kroes et al..

COc1cc(/C=C/C(=O)CC(=O)/C=C/c2ccc(O)c(OC)c2)ccc1O [Cur, curcumin, reference compound]
MMP-9 production Mean (%) ([1]; 1 μM): 100,14%
MMP-9 production Mean (%) ([1]; 5 μM): 64,26%
MMP-9 production Mean (%) ([1]; 20 μM): 39,26%
IL-8 production Mean (%) ([2]; 1 μM): 112,66%
IL-8 production Mean (%) ([2]; 5 μM): 58,75%
IL-8 production Mean (%) ([2]; 20 μM): 26,70%

O=c1c(O)c(-c2ccc(O)c(O)c2)oc2cc(O)cc(O)c12 [Q, quercetin, reference compound]
Elastase release Mean(%) ([3]; 1 μM): 104,09%
Elastase release Mean(%) ([3]; 5 μM): 78,40%
Elastase release Mean(%) ([3]; 20 μM): 55,22%

O=C(OC1COC(=O)c2cc(O)c(O)c(O)c2-c2c(cc(O)c(O)c2O)C(=O)OC1C1OC(=O)c2cc(O)c(O)c(O)c2-c2c(O)c(O)c(O)c3c2C(=O)OC1C3O)c1cc(O)c(O)c(O)c1Oc1cc2c(c(O)c1O)-c1c(cc(O)c(O)c1O)C(=O)OCC1OC(=O)c3cc(O)c(O)c(O)c3-c3c(O)c(O)c(O)c4c3C(=O)OC(C1OC2=O)C1OC(=O)c2c-4c(O)c(O)c(O)c2C1O (centres unmarked) [SA, salicarinin A]
MMP-9 production Mean (%) ([1]; 1 μM): 100,80%
MMP-9 production Mean (%) ([1]; 5 μM): 92,00%
MMP-9 production Mean (%) ([1]; 20 μM): 96,35%
ROS release Mean(%) ([4]; 1 μM): 66,68%
ROS release Mean(%) ([4]; 5 μM): 44,80%
ROS release Mean(%) ([4]; 20 μM): 14,59%
IL-8 production Mean (%) ([2]; 1 μM): 89,82%
IL-8 production Mean (%) ([2]; 5 μM): 81,38%
IL-8 production Mean (%) ([2]; 20 μM): 79,80%
IC50 [5]: 1600 ± 100 nM
Hyaluronidase activity Mean(%) ([5]; 1 μM): 75,50%
Hyaluronidase activity Mean(%) ([5]; 2 μM): 35,96%
Hyaluronidase activity Mean(%) ([5]; 5 μM): 0,50%
Hyaluronidase activity Mean(%) ([5]; 20 μM): 1,13%
ROS release Mean(%) ([6]; 1 μM): 54,14%
ROS release Mean(%) ([6]; 5 μM): 27,84%
ROS release Mean(%) ([6]; 20 μM): 19,49%
Elastase release Mean(%) ([3]; 1 μM): 80,47%
Elastase release Mean(%) ([3]; 5 μM): 63,45%
Elastase release Mean(%) ([3]; 20 μM): 42,22%
MPO release Mean(%) ([7]; 1 μM): 61,96%
MPO release Mean(%) ([7]; 5 μM): 31,79%
MPO release Mean(%) ([7]; 20 μM): 1,52%

O=C(OC1COC(=O)c2cc(O)c(O)c(O)c2-c2c(cc(O)c(O)c2O)C(=O)OC1C1OC(=O)c2cc(O)c(O)c(O)c2-c2c(O)c(O)c(O)c3c2C(=O)OC1C3O)c1cc(O)c(O)c(O)c1Oc1cc2c(c(O)c1O)-c1c(cc(O)c(O)c1O)C(=O)OCC1OC(=O)c3cc(O)c(O)c(O)c3-c3c(O)c(O)c(O)c4c3C(=O)OC(C1OC2=O)C1OC(=O)c2c-4c(O)c(O)c(O)c2C1O (centres unmarked) [SB, salicarinin B]
MMP-9 production Mean (%) ([1]; 1 μM): 99,56%
MMP-9 production Mean (%) ([1]; 5 μM): 95,83%
MMP-9 production Mean (%) ([1]; 20 μM): 78,81%
ROS release Mean(%) ([4]; 1 μM): 64,77%
ROS release Mean(%) ([4]; 5 μM): 36,09%
ROS release Mean(%) ([4]; 20 μM): 13,06%
IL-8 production Mean (%) ([2]; 1 μM): 107,98%
IL-8 production Mean (%) ([2]; 5 μM): 78,12%
IL-8 production Mean (%) ([2]; 20 μM): 59,17%
IC50 [5]: 1600 ± 200 nM
Hyaluronidase activity Mean(%) ([5]; 1 μM): 70,96%
Hyaluronidase activity Mean(%) ([5]; 2 μM): 34,62%
Hyaluronidase activity Mean(%) ([5]; 5 μM): -0,07%
Hyaluronidase activity Mean(%) ([5]; 20 μM): 0,50%
ROS release Mean(%) ([6]; 1 μM): 61,64%
ROS release Mean(%) ([6]; 5 μM): 28,73%
ROS release Mean(%) ([6]; 20 μM): 16,39%
Elastase release Mean(%) ([3]; 1 μM): 82,54%
Elastase release Mean(%) ([3]; 5 μM): 65,03%
Elastase release Mean(%) ([3]; 20 μM): 38,16%
MPO release Mean(%) ([7]; 1 μM): 67,99%
MPO release Mean(%) ([7]; 5 μM): 49,60%
MPO release Mean(%) ([7]; 20 μM): 2,93%

O=C1O[C@H]([C@@H](O)CO)C(O)=C1O [VitC, ascorbic acid, reference compound]
ROS release Mean(%) ([4]; 1 μM): 93,99%
ROS release Mean(%) ([4]; 5 μM): 94,53%
ROS release Mean(%) ([4]; 20 μM): 85,15%
ROS release Mean(%) ([6]; 1 μM): 91,10%
ROS release Mean(%) ([6]; 5 μM): 79,14%
ROS release Mean(%) ([6]; 20 μM): 61,91%

O=C(O)c1cc(O)c(O)c(O)c1 [gal, Gallic acid, reference compound]
MPO release Mean(%) ([7]; 1 μM): 85,62%
MPO release Mean(%) ([7]; 5 μM): 58,97%
MPO release Mean(%) ([7]; 20 μM): 18,88%

Heparin [reference compound]
Hyaluronidase activity Mean(%) ([5]; 1 μg/mL): 100,00%
Hyaluronidase activity Mean(%) ([5]; 2 μg/mL): 96,35%
Hyaluronidase activity Mean(%) ([5]; 5 μg/mL): 89,89%
Hyaluronidase activity Mean(%) ([5]; 20 μg/mL): 82,73%
